Measurements reported in US20160090351A1, “INHIBITORS OF DEUBIQUITINATING PROTEASES” (BRANDEIS UNIVERSITY, priority 2013, published 2016).

Legend:
Assay type in all cases: cell-based, human
[1] = system: Mdm2, p53, p21/WAF1; assay: Mdm2, p53 and p21/WAF1 levels in MCF7 cells; conditions: for Mdm2 levels: C17 4 h, C15 6 hours dosed every 2 hours
Method: FIG. 35 depicts data showing that diphenylcarbonates reduce the levels of Mdm2 and cause the accumulation of P53 and P21 in MCF7 cells. A. MCF7 cells were treated with C17 for 4 h and Mdm2 levels were measured. B. As in A, P53 measured. C. As in A, P21 measured. D. MCF7 and B16/F10 cells were treated with C17 every 24 hours. After 72 hours, the number of viable cells was measured by Alamar Blue®. See also FIG. 41 and FIG. 42.
C. Effect of C15 on PARP cleavage and P53 levels. […] E. Effects of C15 on Mdm2 and P21 levels. […] F. DMSO treated cells. […] C17 was dosed every 24 h. After this time, cells were analyzed by flow cytometry.
Transfected cells were harvested 1.5 days post transfection. […] Typically clarified lysate was analyzed.
The ability of diphenyl carbonates to inhibit USP7 function in cells was also assessed. The ubiquitin-ligase Mdm2 is a substrate for USP7. Mdm2 is responsible for the ubiquitination and subsequent degradation of p53. Mdm2 is over-expressed in many cancer cells, resulting in the depletion of p53. Mdm2 is itself degraded via an ubiquitin-dependent process. USP7 removes ubiquitin from Mdm2, protecting it from degradation. Like Mdm2, USP7 is over-expressed in many cancers. Inhibition of USP7 promotes the proteasome-mediated degradation of Mdm2, which causes an increase in p53 levels, as well as those of the downstream signaling protein p21/WAF1, and ultimately induces apoptosis.

[2] = system: ubiquitin-proteasome system; assay: GFP-G76V-Ub assay in HEK 293T cells; conditions: diphenyl carbonates 100 μM, bortezomib 20 μM, G5 2 μM
Method: FIG. 32 depicts data showing that diphenyl carbonates inhibit DUBs in HEK 293T cells. A. Viability of HEK 293T cells assessed by the propidium iodide exclusion method: diphenyl carbonate (100 μM), bortezomib (V, 20 μM) and G5 (2 μM). N≧3, mean+/−s.d. B. HEK 293T cells were treated with the stated compounds (50 μM) for 2 h and then assayed for the accumulation of K48-linked Ub species. C. As in A, but K63-linked Ub was assayed. D. HEK 293T cells were treated with C14, C15, C17, C18 (100 μM) or DMSO for 2 hours, then harvested, lysed and treated with HA-Ub-VS. After 30 min, lysates were analyzed by SDS-PAGE and probed for HA, tubulin and actin. An intervening lane was removed for clarity. E. HEK 293T cells expressing Ub-G76V-GFP were treated with diphenyl carbonates (100 μM), bortezomib (20 μM) and G5 (2 μM). […] N>3, Mean+/−s.d. See also FIG. 39.
FACS was carried out on a […] FACS-Calibur. For HEK 293T and K562, cells were resuspended by repeated pipetting/agitation of the incubation media, followed by dilution into PBS. For Cos-1, MCF-7, and CHO cells, media was removed and trypsin was added. Harvested cells were placed in FACS buffer (0.5% FBS in PBS with 3 μg/mL propidium iodide) 30 s prior to analysis. All data were analyzed using FlowJo V10, from TreeStar (Ashland, Oreg.). Approximately 2500 cells were sorted per replicate. Cells were sorted by propidium iodide dye exclusion to give a “viable population”. GFP positive cells within this group were identified relative to untransfected controls. Then the geometric mean of the whole GFP positive population within the viable population was calculated. Typical transfection efficiencies for G76V ubiquitin were 60-70% for both Cos-1 and HEK 293T and 25-40% for CHO cells, based on GFP positive cells.
The activity of the diphenylcarbonates in the GFP-G76V-Ub assay, which monitors flux through the ubiquitin-proteasome system, was also investigated. The G76V mutation creates an unstable Ub fusion protein that is degraded in a proteasome dependent process. GFP fluorescence increased when HEK 293T cells expressing GFP-G76V-Ub were treated with the proteasome inhibitor bortezomib and decreased upon treatment with G5 (FIG. 39). This decrease has been attributed to increased flux through the ubiquitin-proteasome system triggered by the accumulation of HMW-Ub. […] Perhaps the inability of the diphenylcarbonates to inhibit UCH-L1/3 accounts for the stability of GFP-G76V-Ub. This selectivity might also explain the low cytoxicity of these compounds relative to G5.

[3] = system: K562 cells; assay: apoptosis, cell cycle and viability of K562 cells by flow cytometry; conditions: K562 cells
Method: K562 cells are from a myelogenous leukemia line that expresses Bcr-Abl kinase. A. K562 cells were treated with TU50 for 24 hours after which time the cells were treated with annexin V-FITC and propidium iodide. Cells were then analyzed by flow cytometry. Cells showing only annexin V-FITC were considered apoptotic whereas cells showing both annexin V-FITC and propidium iodide were considered necrotic. N=2. All points show a significant difference to the vehicle (DMSO) with p<0.05. […] All points show a significant difference to vehicle (DMSO) with p<0.02. C. Same as A, but the incubation period was 8 hours. N>2. All points show a significant difference to DMSO with p<0.02. D, K562 cells were treated with TU50 for 4 hours. Samples were analyzed by SDS-PAGE and immunoblotting with anti-Bcr-Abl antibody. E. Quantitation of blot in D. The signal for tubulin was used to normalize the Bcr-Abl signal. N=3.
FIG. 40 depicts data showing that diphenyl carbonates induce the degradation of Bcr-Abl kinase. A. K562 cells were treated with C17 for 24 h (1 dose) then analyzed for Bcr-Abl expression by western blot with anti-Abl antibody. B. Quantitation of blots in A normalized to actin. C. K562 cells were treated with C17 for 24 h then the amount of cells in G1 and apoptosis were recorded (N=3). D. K562 were treated with C15 for 4 h then analyzed for Bcr-Abl expression using western blot. E. Quantitation of Bcr-Abl from D normalized to tubulin (N=4). F. Same K562 lysates were separately analyzed for K63-linked ubiquitin. G. Quantitation of blots in F (N=4). Differences between all bars is significant p<0.01). H. K562 cells were treated with C15 for 24 h after which time cells were fixed in ethanol, treated with propodium iodide/RNAse then analyzed by FACS. Viability was calculated using forward and side scatter. I. Same experiment as H but red fluorescence was measured to determine DNA content

In the case of `NCc1ccc(OC(=O)Oc2ccc3ccccc3c2)cc1` [Compound C17], the p21/WAF1 levels [1] is reported as “robust increase in p21/WAF1 levels”, the p53 levels [1] is reported as “concomitant increase in p53” and the Mdm2 levels [1] is reported as “Mdm2 levels decreased”. The GFP fluorescence [2] was “no change in fluorescence was observed” and the “G1 and apoptotic cells” value ([3]; 24 h incubation) was “dose-dependent increase in G1 and apoptotic cells”.

With `NCc1ccc(OC(=O)Oc2cccc3ccccc23)cc1` [Compound C18] the GFP fluorescence [2] was “no change in fluorescence was observed”.

For `O=C1/C(=C/c2ccc([N+](=O)[O-])cc2)CS(=O)(=O)C/C1=C\c1ccc([N+](=O)[O-])cc1` [Compound G5, reference compound], the GFP fluorescence [2] was “decreased”.

With `NCc1ccc(OC(=O)Oc2ccc(Br)cc2)cc1` [Compound C15, 4-(aminomethyl)phenyl(4-bromophenyl)carbonate] the p21/WAF1 levels [1] was “decreased p21/WAF1”, the p53 levels [1] was “increased P53 levels” and the Mdm2 levels [1] was “decreased Mdm2”. The GFP fluorescence [2] was “no change in fluorescence was observed” and the “viability, G1 and apoptotic cells” value ([3]; 24 h, at 50 μM) was “decrease in viability, and increase in G1 and apoptotic cells”.

With `NCc1ccc(OC(=O)Oc2ccc(Cl)cc2)cc1` [Compound C14, 4-(aminomethyl)phenyl(4-chlorophenol)carbonate] the GFP fluorescence [2] was “no change in fluorescence was observed”.
